Target: JAK1 (Homo sapiens (Human), UniProt P23458)
Experiment: Analysis of JAK1 activity inhibition ability (ADP-Glo Kinase Assay)
Assay type: biochemical
Conditions: JAK1 enzyme, ADP-Glo luminescence, ATP 250 uM, IRS-itide substrate, 30° C. 40 minutes; read-out: IC50
How it was run: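 JAK1 enzyme, IRS-itide substrate (40 ng/mL) and 250 uM ATP, both as prepared in kinase buffer (Tris-HCl pH 7.5, MgCl2, BSA, DTT), reacted with compound 40 min at 30 °C. ADP formed was detected by ADP-Glo luminescence; IC50 is the concentration giving 50% inhibition versus control.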

Sequence of JAK1 (P23458 whole entry): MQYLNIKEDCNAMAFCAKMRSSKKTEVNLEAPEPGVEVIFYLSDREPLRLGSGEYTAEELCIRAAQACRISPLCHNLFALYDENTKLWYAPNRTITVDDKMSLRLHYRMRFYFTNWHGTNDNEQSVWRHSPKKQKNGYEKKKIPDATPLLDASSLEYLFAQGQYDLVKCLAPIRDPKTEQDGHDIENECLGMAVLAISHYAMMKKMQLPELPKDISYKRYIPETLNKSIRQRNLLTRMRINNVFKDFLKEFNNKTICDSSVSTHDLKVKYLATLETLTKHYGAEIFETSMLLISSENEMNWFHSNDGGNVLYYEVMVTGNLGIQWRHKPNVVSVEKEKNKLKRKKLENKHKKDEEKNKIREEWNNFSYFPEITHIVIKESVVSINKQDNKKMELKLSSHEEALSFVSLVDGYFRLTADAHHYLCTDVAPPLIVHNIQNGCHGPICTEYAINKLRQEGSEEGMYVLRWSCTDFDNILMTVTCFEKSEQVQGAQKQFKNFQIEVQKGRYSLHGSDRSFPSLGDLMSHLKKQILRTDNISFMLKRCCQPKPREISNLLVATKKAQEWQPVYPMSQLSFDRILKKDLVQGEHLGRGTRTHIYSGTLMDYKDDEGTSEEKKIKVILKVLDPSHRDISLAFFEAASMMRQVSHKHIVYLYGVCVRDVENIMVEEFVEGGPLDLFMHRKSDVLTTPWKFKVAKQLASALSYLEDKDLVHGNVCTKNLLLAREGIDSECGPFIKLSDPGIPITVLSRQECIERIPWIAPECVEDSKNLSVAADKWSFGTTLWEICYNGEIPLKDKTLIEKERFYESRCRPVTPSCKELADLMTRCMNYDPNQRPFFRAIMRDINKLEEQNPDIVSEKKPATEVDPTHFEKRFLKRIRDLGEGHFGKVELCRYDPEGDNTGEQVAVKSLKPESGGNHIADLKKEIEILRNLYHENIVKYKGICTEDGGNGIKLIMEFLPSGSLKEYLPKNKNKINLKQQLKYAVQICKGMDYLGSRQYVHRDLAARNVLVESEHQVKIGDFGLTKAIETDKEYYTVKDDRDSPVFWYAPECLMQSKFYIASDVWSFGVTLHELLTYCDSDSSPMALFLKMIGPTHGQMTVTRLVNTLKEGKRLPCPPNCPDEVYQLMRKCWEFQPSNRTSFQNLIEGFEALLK

IC50 [nM]	SMILES
< 20	CCCS(=O)(=O)Nc1ccc(-c2cc(NC(=O)C3CC3)nc3[nH]ccc23)cc1 [Example 5, N-(4-(4-(propylsulfonamido)phenyl)-1H-pyrrolo[2,3-b]pyridin-6-yl)cyclopropanecarboxamide]
20 to 200	O=C(Nc1cc(-c2ccc(NS(=O)(=O)c3ccc(Cl)c(C(F)(F)F)c3)cc2)c2cc[nH]c2n1)C1CC1 [Example 33, N-(4-(4-((4-chloro-3-(trifluoromethyl)phenyl)sulfonamido)phenyl)-1H-pyrrolo[2,3-b]pyridin-6-yl)cyclopropanecarboxamide]
< 20	O=C(Nc1cc(-c2ccc(NS(=O)(=O)c3ccc(F)c(F)c3)cc2)c2cc[nH]c2n1)C1CC1 [Example 2, N-(4-(4-((3,4-difluorophenyl)sulfonamido)phenyl)-1H-pyrrolo[2,3-b]pyridin-6-yl)cyclopropanecarboxamide]
> 200	CN1CCC(C(=O)N2CC=C(c3cc(NC(=O)C4CC4)nc4[nH]ccc34)CC2)C1 (stereo not drawn) [Example 280, N-(4-(1-(1-methylpyrrolidine-3-carbonyl)-1,2,3,6-tetrahydropyridin-4-yl)-1H-pyrrolo[2,3-b]pyridin-6-yl)cyclopropanecarboxamide]
20 to 200	N#CCCNC(=O)C1CC=C(c2cc(NC(=O)C3CC3)nc3[nH]ccc23)CC1 (stereo not drawn) [Example 532, N-(2-cyanoethyl)-4-(6-(cyclopropanecarboxamido)-1H-pyrrolo[2,3-b]pyridin-4-yl)cyclohex-3-ene-1-carboxamide]
20 to 200	CC1(C)CC(c2cc(NC(=O)C3CC3)nc3[nH]ccc23)=CCN1C(=O)c1ccnc(Cl)c1 [Example 386, N-(4-(1-(2-chloroisonicotinoyl)-2,2-dimethyl-1,2,3,6-tetrahydropyridin-4-yl)-1H-pyrrolo[2,3-b]pyridin-6-yl)cyclopropanecarboxamide]
> 200	O=C(Nc1nc(-c2ccc(CNc3cccc(F)c3)cc2)c2nc[nH]c2n1)C1CC1 [Example 598, N-(6-(4-(((3-fluorophenyl)amino)methyl)phenyl)-9H-purin-2-yl)cyclopropanecarboxamide]
< 20	Cc1cc(NS(=O)(=O)CC2(C#N)CC2)ccc1-c1cc(NC(=O)C2CC2)nc2[nH]ccc12 [Example 102, N-(4-(4-(((1-cyanocyclopropyl)methyl)sulfonamido)-2-methylphenyl)-1H-pyrrolo[2,3-b]pyridin-6-yl)cyclopropanecarboxamide]
20 to 200	O=C(Nc1cc(C2=CCN(C(=O)n3ccnc3)CC2)c2cc[nH]c2n1)C1CC1 [Example 451, N-(4-(1-(1H-imidazole-1-carbonyl)-1,2,3,6-tetrahydropyridin-4-yl)-1H-pyrrolo[2,3-b]pyridin-6-yl)cyclopropanecarboxamide]
> 200	N#Cc1cc(NS(=O)(=O)CC2(C#N)CC2)ccc1-c1cc(NC(=O)C2CC2)nc2[nH]ccc12 [Example 147, N-(4-(2-cyano-4-(((1-cyanocyclopropyl)methyl)sulfonamido)phenyl)-1H-pyrrolo[2,3-b]pyridin-6-yl)cyclopropanecarboxamide]
20 to 200	N#CCCCS(=O)(=O)Oc1ccc(-c2cc(NC(=O)C3CC3)nc3[nH]ccc23)cc1 [Example 639, 4-(6-(cyclopropanecarboxamido)-1H-pyrrolo[2,3-b]pyridin-4-yl)phenyl 3-cyanopropane-1-sulfonate]
> 200	O=C(Nc1cc(-c2ccc(NC3CN(C(=O)NCC(F)(F)F)C3)cc2)c2cc[nH]c2n1)C1CC1 [Example 514, 3-((4-(6-(cyclopropanecarboxamido)-1H-pyrrolo[2,3-b]pyridin-4-yl)phenyl)amino)-N-(2,2,2-trifluoroethyl)azetidine-1-carboxamide]
20 to 200	O=C(Nc1ccc(F)cc1)Nc1ccc(-c2nc(NC(=O)C3CC3)nc3[nH]ccc23)cc1 [Example 441, N-(4-(4-(3-(4-fluorophenyl)ureido)phenyl)-7H-pyrrolo[2,3-d]pyrimidin-2-yl)cyclopropanecarboxamide]
20 to 200	N#CCNC(=O)c1c(F)cc(-c2cc(NC(=O)C3CC3)nc3[nH]ccc23)cc1F [Example 529, N-(cyanomethyl)-4-(6-(cyclopropanecarboxamido)-1H-pyrrolo[2,3-b]pyridin-4-yl)-2,6-difluorobenzamide]

SMILES	IC50 [nM]
CCS(=O)(=O)N1C2CCC1CN(c1nc(NC(=O)C3CC3)nc3[nH]ccc13)C2 [Example 669, N-(4-(8-(ethylsulfonyl)-3,8-diazabicyclo[3.2.1]octan-3-yl)-7H-pyrrolo[2,3-d]pyrimidin-2-yl)cyclopropanecarboxamide]	20 to 200
